According to patent US12655174B2, “Adenosine A3 receptor agonists, preparation methods and uses thereof” (ZHEJIANG VIMGREEN PHARMACEUTICALS, LTD., priority 2020, dated 2026):

Key:
[1] = target: T1, ADORA3 receptor (CHO cells stably expressing ADORA3 receptor) (Homo sapiens, UniProt P0DMS8); experiment: Effect of compound on intracellular cAMP level by adenosine A3 receptor agonism; format: cell-based; conditions: forskolin-stimulated
T1 construct: expressed in transfected cells
T1 sequence (P0DMS8 1-318): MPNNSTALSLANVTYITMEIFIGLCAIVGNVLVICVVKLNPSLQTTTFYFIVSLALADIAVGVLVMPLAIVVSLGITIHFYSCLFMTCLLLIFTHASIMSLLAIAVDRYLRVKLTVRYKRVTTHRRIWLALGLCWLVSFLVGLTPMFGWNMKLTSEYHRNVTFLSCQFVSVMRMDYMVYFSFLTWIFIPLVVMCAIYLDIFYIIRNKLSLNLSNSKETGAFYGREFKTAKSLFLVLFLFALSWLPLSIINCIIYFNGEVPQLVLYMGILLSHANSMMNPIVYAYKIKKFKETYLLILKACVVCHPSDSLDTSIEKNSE
Outline: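 Agonism read as change in forskolin-stimulated cAMP by TR-FRET competition (Eu-cAMP tracer, ULight anti-cAMP antibody). Compound tested as 10 three-fold dilutions on ADORA3-CHO cells in buffer containing rolipram, incubated at 37 °C. Hill fit of % activation against log concentration gives EC50.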

[2] = target: T2, ADORA3 receptor (Homo sapiens, UniProt P0DMS8); experiment: Agonistic effect on adenosine A3 receptor by FLIPR assay (calcium flux assay); format: cell-based; conditions: agonist mode
T2 sequence (P0DMS8 1-318): T1 sequence (P0DMS8 1-318)
Protocol: Example 27: Agonistic Effect of Compound on Adenosine A3 Receptor by FLIPR Assay (Calcium Flux Assay)
First Day: Cell Inoculation
• 1) With regard to ADORA3 receptor, cultured cells were used for inoculation: the culture medium was aspirated and the cells were washed twice with 10 mL of DPBS. 2 mL of 0.05% EDTA-trypsin was added and the cells were incubated at 37° C. for 1 minute. Then 10 mL of the culture medium was added to stop the digestion and the cell suspension was transferred to a 50-mL tapered tube. • 2) The 50-mL tapered tube containing the various cells was centrifuged at 300 g for 5 minutes. • 3) A supernatant was aspirated and no cells should be aspirated. • 4) The cell precipitate was resuspended in 6-8 mL of the culture medium, and then 0.5 mL of the cells were taken out for cell counting by using a Vi-cell XR cell viability analyzer. • 5) The cell suspension was diluted to 1×10^6 cells/mL (20 μL of 20,000 cells per well) in the culture medium and the cells were inoculated into a cell plate (384-well Poly-D-lysine protein-coated plate, Greiner-781946). • 6) The plate was placed in a 37° C./5% CO2 incubator for 16-20 hours. Second Day: • 1) Preparation of 2×Fluo-4 Direct™ uptaking dye • a. Preparation of probenecid solution • 1 mL of FLIPR assay buffer was added to 77 mg of probenecid (provided by Fluo-4 Direct™ calcium assay kit) to be prepared into 250 mM of a probenecid solution. The fresh probenecid solution was used daily. • b. 2×(8 μM) Fluo-4 Direct™ loading dye (per 10 mL)
A vial of the Fluo-4 Direct™ crystal was thawed and then 10 mL of the FLTPR analytical buffer was added to the vial. Then 0.2 mL of 250 mM of a probe solution was added to every 10 mL Fluo-4 Direct™ crystal to a final assay concentration of 2.5 mM. The solution was vortexed and stood for >5 min at a dark place. 2×Fluo-4 Direct™ uptaking dye was freshly prepared daily. • 2) Compound preparation • a. Preparation of compound plate: all reference and test compounds were serially diluted 4-fold in 10 points by using an Echo liquid processor and then 900 nL of the diluted compounds were transferred to a compound plate. • b. 30 μL FLIPR analytical buffer was added to the compound plate and the plate was centrifuged at 300 g for 1 minute. • 3) FLIPR analysis • a. With regard to ADORA3 receptor: firstly, the cell plate was taken out from a culture box. The culture medium was then aspirated and 20 μL of the FLIPR analytical buffer was added. The cell plate was placed in an incubator for 45 minutes and at a room temperature for 15 minutes. • b. To run an experimental solution on […], 10 μL of the FLIPR analytical buffer was transferred from the compound plate to a cell plate, and then the fluorescent signal was read. Then 10 μL of a compound solution was transferred from the compound plate to the cell plate and the fluorescence signal was read. “Max−min” was calculated from Reader 91 to an allowed maximum value. • c. With regard to agonist: activation %=(RLU−LC)/(HC−LC)*100, • wherein RLU=relative light unit, allowed maximum signal was 91; HC=average signal of high concentration agonist; and LC=mean signal of DMSO well. • d. Data were fitted to a model “log (agonist) versus response-variable slope” by using GraphPad Prism 5 to determine an EC50 value. • e. […] 2. Test Result

[3] = Pharmacokinetic test of compound in SD rat; format: in vivo; conditions: SD rats, intragastric administration (IG), cassette dosing
Protocol: Example 28: Pharmacokinetic Test of Compound in SD Rat
The animal species used in this experiment were SD rats. There were 3 animals per group. The rats were dosed in cassette format, i.e., multiple (1-6) different compounds were dosed simultaneously to the same group of the SD rats. The vehicle used for the drug was 5% DMSO+5% Solutl+90% ([…] methylcellulose M450), and the administration route was intragastric administration (IG).

EC50 [1] [nM]	EC50 [2] [nM]	AUC_D [3] [kg·ng·h/mL/mg]	SMILES
5.81	39.2	659.04	CNC(=O)[C@H]1O[C@@H](n2cnc3c(NCc4ccccn4)nc(-c4cncc(Cl)c4)nc32)[C@H](O)[C@@H]1O [compound 306, (2S,3S,4R,5S)-5-(2-(5-chloropyridin-3-yl)-6-((pyridin-2-lymethyl)amino)-9H-purin-9-yl)-3,4-dihydroxyl-N-methyltetrahydrofuran-2-carboxamide]
3.27	71.4	986.00	CNC(=O)[C@H]1O[C@@H](n2cnc3c(NCc4cccc(Cl)n4)nc(-c4cncc(Cl)c4)nc32)[C@H](O)[C@@H]1O [compound 308]
< 0.51	4.05	1820.66	CNC(=O)[C@H]1O[C@@H](n2cnc3c(NCc4cc(C)ccn4)nc(-c4cncc(OC)c4)nc32)[C@H](O)[C@@H]1O [compound 312]
